Results on 68 sequences are retold here after the supplement of paper PMC11208160.
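Note: IS621 bridge recombinase in Escherichia coli cells against a fixed T5 target plasmid.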

The nature of the series: recombinant UMI read abundance after kanamycin selection (control-corrected) (log10(CPM+1)); higher = more efficient recombination; extreme values may be limits of the assay; sequences stand for … in AGTGCAGAGAAAATCGGCCAGTTTTCTCTGCCTGCAGTCCGCATGCCGTGGGACCCCTTGGGTTCTAACCTGTTGCCTAGATTTATGCAGCGGACTGCCTTTCTCCCAAAGTGATAAACCGG…AGGTTGGTTTCACT; site = the 11-nt donor. Summed up: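 After plating on IPTG (0.07 mM) plus kanamycin, or unselected, in two replicates, recombinant UMIs were PCR-amplified across the donor–target junction and sequenced. The cells were Escherichia coli co-electroporated with a UMI-tagged donor and donor-binding-loop pair library and a target plasmid with a fixed target and T7-inducible IS621 bridge recombinase. Values are log10(CPM+1), with CPM averaged over replicates and scaled by control-derived factors.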
“CAGTCGTCATGGACCGGTTTTCCCGGTAATCCGTATTTGGG (site CAGTCGCCTCC)”: the “recombinant UMI read abundance (log10)” value worked out at 0.0207.

In the case of “CAGTCGTCATGGACCGGTTTTCCCGGTAATCCGTATTTGGG (site CAGTCGGCTCC)”, the “recombinant UMI read abundance (log10)” value was 0.0122.

For the sequence “CAGTCGTCATGGACCGGTTTTCCCGGTAATCCGTATTTGGG (site CAGTCGTCTCC)”, the “recombinant UMI read abundance (log10)” value is 0.348.

With “CAGTGCTCATGGACCGGTTTTCCCGGTAATCCGTATTTGAA (site CAATGCTCTTT)”, the “recombinant UMI read abundance (log10)” value came to 1.35.

On to “CAGTGCTCATGGACCGGTTTTCCCGGTAATCCGTATTTGAA (site CACTGCTCTTT)”, for which the “recombinant UMI read abundance (log10)” value worked out at 0.28.

Take “CAGTGCTCATGGACCGGTTTTCCCGGTAATCCGTATTTGAA (site CAGTGCTCTTT)”: the “recombinant UMI read abundance (log10)” value was determined as 2.48.

“CAGTGCTCATGGACCGGTTTTCCCGGTAATCCGTATTTGAA (site CATTGCTCTTT)”: the “recombinant UMI read abundance (log10)” value was 0.0098.

Consider “CAGTGGACATGGACCGGTTTTCCCGGTAATCCGTATTTGGG (site CAGTAGACTCC)”, for which the “recombinant UMI read abundance (log10)” value was determined as 0.368.

As for “CAGTGGACATGGACCGGTTTTCCCGGTAATCCGTATTTGGG (site CAGTCGACTCC)”, the “recombinant UMI read abundance (log10)” value was determined as 0.0117.

Turning to “CAGTGGACATGGACCGGTTTTCCCGGTAATCCGTATTTGGG (site CAGTGGACTCC)”, the “recombinant UMI read abundance (log10)” value was found to be 0.0835.

Consider “CAGTGGACATGGACCGGTTTTCCCGGTAATCCGTATTTGGG (site CAGTTGACTCC)”, for which the “recombinant UMI read abundance (log10)” value was 0.0125.

Turning to “CAGTTAGCATGGACCGGTTTTCCCGGTAATCCGTATTTGTG (site CAGTTAGCTCA)”, the “recombinant UMI read abundance (log10)” value amounted to 2.09.

As for “CAGTTAGCATGGACCGGTTTTCCCGGTAATCCGTATTTGTG (site CCGTTAGCTCA)”, the “recombinant UMI read abundance (log10)” value stood at 0.0219.

As to “CAGTTAGCATGGACCGGTTTTCCCGGTAATCCGTATTTGTG (site CGGTTAGCTCA)”, the “recombinant UMI read abundance (log10)” value worked out at 0.347.

Take “CAGTTAGCATGGACCGGTTTTCCCGGTAATCCGTATTTGTG (site CTGTTAGCTCA)”: the “recombinant UMI read abundance (log10)” value is 0.364.

For the sequence “CAGTTCCCATGGACCGGTTTTCCCGGTAATCCGTATTTGCT (site CAATTCCCTAG)”, the “recombinant UMI read abundance (log10)” value was determined as 0.806.

As to “CAGTTCCCATGGACCGGTTTTCCCGGTAATCCGTATTTGCT (site CACTTCCCTAG)”, the “recombinant UMI read abundance (log10)” value came to 0.644.

For “CAGTTCCCATGGACCGGTTTTCCCGGTAATCCGTATTTGCT (site CAGTTCCCTAG)”, the “recombinant UMI read abundance (log10)” value was found to be 0.863.

“CAGTTCCCATGGACCGGTTTTCCCGGTAATCCGTATTTGCT (site CATTTCCCTAG)”: the “recombinant UMI read abundance (log10)” value came to 0.433.

Consider “CAGTTGGCATGGACCGGTTTTCCCGGTAATCCGTATTTGGA (site CAATTGGCTTC)”, for which the “recombinant UMI read abundance (log10)” value stood at 0.882.

For “CAGTTGGCATGGACCGGTTTTCCCGGTAATCCGTATTTGGA (site CACTTGGCTTC)”, the “recombinant UMI read abundance (log10)” value was determined as 0.076.

With “CAGTTGGCATGGACCGGTTTTCCCGGTAATCCGTATTTGGA (site CAGTTGGCTTC)”, the “recombinant UMI read abundance (log10)” value came out at 1.72.

Turning to “CAGTTGGCATGGACCGGTTTTCCCGGTAATCCGTATTTGGA (site CATTTGGCTTC)”, the “recombinant UMI read abundance (log10)” value stood at 0.00616.

In the case of “CATAATACATGGACCGGTTTTCCCGGTAATCCGTATTTGGC (site CATAATACTGC)”, the “recombinant UMI read abundance (log10)” value was found to be 1.88.

For “CATAATACATGGACCGGTTTTCCCGGTAATCCGTATTTGGC (site CCTAATACTGC)”, the “recombinant UMI read abundance (log10)” value turned out to be 0.

On to “CATAATACATGGACCGGTTTTCCCGGTAATCCGTATTTGGC (site CGTAATACTGC)”, for which the “recombinant UMI read abundance (log10)” value worked out at 0.

Regarding “CATAATACATGGACCGGTTTTCCCGGTAATCCGTATTTGGC (site CTTAATACTGC)”, the “recombinant UMI read abundance (log10)” value is 0.

As for “CATAGCCCATGGACCGGTTTTCCCGGTAATCCGTATTTGAG (site CATAGCCCTCT)”, the “recombinant UMI read abundance (log10)” value worked out at 0.0141.

For the sequence “CATATTGCATGGACCGGTTTTCCCGGTAATCCGTATTTGCA (site CATATTGCTTG)”, the “recombinant UMI read abundance (log10)” value was 0.

In the case of “CATATTGCATGGACCGGTTTTCCCGGTAATCCGTATTTGTT (site CATATTGCTAA)”, the “recombinant UMI read abundance (log10)” value was 1.21.

Regarding “CATCACACATGGACCGGTTTTCCCGGTAATCCGTATTTGGT (site CATCACACTAC)”, the “recombinant UMI read abundance (log10)” value came to 1.24.

On to “CATCGAACATGGACCGGTTTTCCCGGTAATCCGTATTTGAT (site CATCGAACTAT)”, for which the “recombinant UMI read abundance (log10)” value was determined as 0.616.

For the sequence “CATCGAACATGGACCGGTTTTCCCGGTAATCCGTATTTGCT (site CATCGAACTAG)”, the “recombinant UMI read abundance (log10)” value is 2.31.

As to “CATCGGACATGGACCGGTTTTCCCGGTAATCCGTATTTGAA (site CATCGGACTTT)”, the “recombinant UMI read abundance (log10)” value was determined as 1.53.

For “CATCGGGCATGGACCGGTTTTCCCGGTAATCCGTATTTGCC (site CATCGGGCTGG)”, the “recombinant UMI read abundance (log10)” value was determined as 1.31.

For “CATCTTGCATGGACCGGTTTTCCCGGTAATCCGTATTTGCG (site CATCTTGCTCG)”, the “recombinant UMI read abundance (log10)” value worked out at 0.00609.

Turning to “CATCTTTCATGGACCGGTTTTCCCGGTAATCCGTATTTGGT (site CATCTTTCTAC)”, the “recombinant UMI read abundance (log10)” value was 0.00559.

As for “CATGCGCCATGGACCGGTTTTCCCGGTAATCCGTATTTGTG (site CAAGCGCCTCA)”, the “recombinant UMI read abundance (log10)” value stood at 0.0274.

As for “CATGCGCCATGGACCGGTTTTCCCGGTAATCCGTATTTGTG (site CACGCGCCTCA)”, the “recombinant UMI read abundance (log10)” value was 0.0136.

Turning to “CATGCGCCATGGACCGGTTTTCCCGGTAATCCGTATTTGTG (site CAGGCGCCTCA)”, the “recombinant UMI read abundance (log10)” value is 0.025.

Turning to “CATGCGCCATGGACCGGTTTTCCCGGTAATCCGTATTTGTG (site CATGCGCCTCA)”, the “recombinant UMI read abundance (log10)” value was determined as 0.0238.

Take “CATGGCCCATGGACCGGTTTTCCCGGTAATCCGTATTTGTT (site CAAGGCCCTAA)”: the “recombinant UMI read abundance (log10)” value was 0.0112.

Turning to “CATGGCCCATGGACCGGTTTTCCCGGTAATCCGTATTTGTT (site CACGGCCCTAA)”, the “recombinant UMI read abundance (log10)” value was 0.00402.

For the sequence “CATGGCCCATGGACCGGTTTTCCCGGTAATCCGTATTTGTT (site CAGGGCCCTAA)”, the “recombinant UMI read abundance (log10)” value is 0.0418.

As to “CATGGCCCATGGACCGGTTTTCCCGGTAATCCGTATTTGTT (site CATGGCCCTAA)”, the “recombinant UMI read abundance (log10)” value turned out to be 0.00575.

As for “CATTAGCCATGGACCGGTTTTCCCGGTAATCCGTATTTGGA (site CATTAGCCTTC)”, the “recombinant UMI read abundance (log10)” value came out at 0.0164.

On to “CATTCCACATGGACCGGTTTTCCCGGTAATCCGTATTTGCA (site CATTCCACTTG)”, for which the “recombinant UMI read abundance (log10)” value was found to be 1.95.

Regarding “CATTCGACATGGACCGGTTTTCCCGGTAATCCGTATTTGGG (site CAATCGACTCC)”, the “recombinant UMI read abundance (log10)” value is 0.0123.

“CATTCGACATGGACCGGTTTTCCCGGTAATCCGTATTTGGG (site CACTCGACTCC)”: the “recombinant UMI read abundance (log10)” value stood at 0.0107.

For “CATTCGACATGGACCGGTTTTCCCGGTAATCCGTATTTGGG (site CAGTCGACTCC)”, the “recombinant UMI read abundance (log10)” value was determined as 0.0114.

On to “CATTCGACATGGACCGGTTTTCCCGGTAATCCGTATTTGGG (site CATTCGACTCC)”, for which the “recombinant UMI read abundance (log10)” value came out at 0.00677.

For “CATTCTCCATGGACCGGTTTTCCCGGTAATCCGTATTTGAG (site CATTCTCCTCT)”, the “recombinant UMI read abundance (log10)” value was found to be 0.0129.

For “CATTGAACATGGACCGGTTTTCCCGGTAATCCGTATTTGTT (site CATTGAACTAA)”, the “recombinant UMI read abundance (log10)” value was found to be 0.0984.

Turning to “CATTGCACATGGACCGGTTTTCCCGGTAATCCGTATTTGTT (site CATTGCACTAA)”, the “recombinant UMI read abundance (log10)” value is 0.487.

As to “CATTGCTCATGGACCGGTTTTCCCGGTAATCCGTATTTGAA (site CAATGCTCTTT)”, the “recombinant UMI read abundance (log10)” value stood at 0.335.

Regarding “CATTGCTCATGGACCGGTTTTCCCGGTAATCCGTATTTGAA (site CACTGCTCTTT)”, the “recombinant UMI read abundance (log10)” value worked out at 0.00354.

Consider “CATTGCTCATGGACCGGTTTTCCCGGTAATCCGTATTTGAA (site CAGTGCTCTTT)”, for which the “recombinant UMI read abundance (log10)” value is 0.351.

For “CATTGCTCATGGACCGGTTTTCCCGGTAATCCGTATTTGAA (site CATTGCTCTTT)”, the “recombinant UMI read abundance (log10)” value came out at 1.05.

Consider “CCAAATTCATGGACCGGTTTTCCCGGTAATCCGTATTTGTT (site CCAAATTCTAA)”, for which the “recombinant UMI read abundance (log10)” value was 0.

Take “CCAACCCCATGGACCGGTTTTCCCGGTAATCCGTATTTGCT (site CCAACCCCTAG)”: the “recombinant UMI read abundance (log10)” value turned out to be 0.

Take “CCAACGGCATGGACCGGTTTTCCCGGTAATCCGTATTTGCG (site CCAACGGCTCG)”: the “recombinant UMI read abundance (log10)” value came out at 1.52.

With “CCAACTACATGGACCGGTTTTCCCGGTAATCCGTATTTGAC (site CCAACTACTGT)”, the “recombinant UMI read abundance (log10)” value worked out at 0.998.

In the case of “CCAAGGGCATGGACCGGTTTTCCCGGTAATCCGTATTTGCT (site CCAAGGGCTAG)”, the “recombinant UMI read abundance (log10)” value amounted to 0.

Consider “CCACCAGCATGGACCGGTTTTCCCGGTAATCCGTATTTGTA (site CCACCAGCTTA)”, for which the “recombinant UMI read abundance (log10)” value turned out to be 1.17.

Regarding “CCACTAACATGGACCGGTTTTCCCGGTAATCCGTATTTGGA (site CAACTAACTTC)”, the “recombinant UMI read abundance (log10)” value turned out to be 0.0202.

Take “CCACTAACATGGACCGGTTTTCCCGGTAATCCGTATTTGGA (site CCACTAACTTC)”: the “recombinant UMI read abundance (log10)” value amounted to 0.235.

Consider “CCACTAACATGGACCGGTTTTCCCGGTAATCCGTATTTGGA (site CGACTAACTTC)”, for which the “recombinant UMI read abundance (log10)” value is 0.0202.

Regarding “CCACTAACATGGACCGGTTTTCCCGGTAATCCGTATTTGGA (site CTACTAACTTC)”, the “recombinant UMI read abundance (log10)” value was determined as 0.0175.
